Laboratory results taken from publication PMC12406664, “New derivatives of 6-nitrocoumarin-3-thiosemicarbazone exhibit improved antiparasitic activity in the placenta against Trypanosoma cruzi and Toxoplasma gondii” (Antimicrobial Agents and Chemotherapy, 2025).
Entries after “also recorded” stand apart in the source; their conditions may differ.

Assays:
[1] = Cytotoxicity on cells (resazurin), EA.hy926; assay type: cell-based; settings: human, EA.hy926 endothelial cells
From the text: Triton X-100 was used as a positive control, and untreated cells served as a negative control. In addition, the maximum concentration of DMSO was used as a control for the method. […] The obtained values were expressed as IC50([88]).

[2] = tested on: T. gondii tachyzoites (strain RH); assay: Intracellular ROS generation (DCF probe) in T. gondii; assay type: cell-based, Toxoplasma gondii; settings: compound at IC50, menadione 20 µM, 40 minutes, vs untreated control
Protocol: ROS detection was performed using the 2′,7′-dichlorodihydrofluorescein diacetate (DCFH2-DA) method ([45]). For the assay, Dm28c trypomastigotes and tachyzoites were seeded in 96-well plates at a density of 10⁶ parasites/mL. In contrast, BeWo cells were seeded at 5 × 10⁴ cells per well, using the previously described culture medium.
After incubation with 20 µM DCFH2-DA for 15 minutes at 37°C, the parasites were centrifuged at 3,500 × g, washed twice with PBS (pH 7.4), and subsequently transferred to Nunc 96-well fluorescence plates. Meanwhile, after 24 hours of incubation at 37°C and 5% CO₂, the culture medium of BeWo cells was replaced, and 20 µM DCFH2-DA solution was added, followed by a 15 minute incubation at 37°C. The cells were then washed with PBS at pH 7.4. As a positive control, 20 µM menadione was used, while the negative control consisted of culture medium without compounds.
Over time, the area under the fluorescence increase curve was determined using Origin 8 software (version 9.2), with normalization relative to the control. The results correspond to three independent experiments' mean ± standard deviation (SD).

[3] = Lipophilicity by reversed-phase TLC (RM); settings: reverse phase-C18, DMSO/phosphate buffer pH 7.4 (70:30 vol/vol), RM = log[(1/Rf) – 1]
Protocol: Lipophilicity was studied by reversed-phase TLC experiments. Precoated TLC plates SIL RP-18W/UV254 were used and eluted with DMSO/physiological serum (70:30, vol/vol). Stock solutions were prepared in pure DMSO (Aldrich) prior to use. The plates were developed in a closed chromatographic tank, dried, and the spots were located under UV light. The Rf values were averaged from three determinations and converted into RM values via the relationship: RM = log [(1/Rf)−1]

[4] = Cyclic voltammetry, reduction potentials in DMSO (HDME, vs. Ag/AgCl); settings: 2.00 V/s
Protocol: Electrochemical studies were carried out on a Metrohm Autolab instrument model PGSTAT204, using dimethyl sulfoxide (DMSO) as the solvent (1 mM solutions), tetrabutylammonium perchlorate (0.1 M TBAP) as the supporting electrolyte, a hanging drop mercury electrode (HDME) as the working electrode, Ag/AgCl (3M KCl) as the reference electrode and a graphite rod as the counter electrode. All measurements were performed after bubbling with nitrogen (N2) for 10 minutes.

[5] = tested on: T. gondii (RH strain) in HPE; assay: T. gondii DNA load in infected human placental explants (HPE) by real-time qPCR; assay type: cell-based, Toxoplasma gondii; settings: 24 hour post-infection treatment, IC50 concentration
Protocol: The effect on HPE infection of compounds 1 and 7 by Toxoplasma gondii and Trypanosoma cruzi, respectively, was evaluated. To do this, the DNA of the T. gondii or T. cruzi parasite was quantified by infecting HPE for 24 hours under treatment conditions of co-incubation of compounds with the parasite at the same time of infection, and with a 24 hour post-infection treatment. The compound’s IC50 concentration value previously obtained under both conditions was used.
Term human placentas were obtained from uncomplicated pregnancies via scheduled cesarean sections. Each patient provided informed consent for the experimental use of the placenta, and the study was approved by the ethics committee of Hospital San José, Servicio Salud Metropolitano Norte (N° 013/2022). Exclusion criteria for placental use included significant fetal anomalies, placental tumors, intrauterine infection, positive serology for Chagas disease, obstetric pathology, and any other maternal disease. Donor patients tested negative for T. gondii IgG/IgM antibodies. Organs were collected in sterile, cold PBS and processed within 30 minutes after delivery. Maternal and fetal surfaces of each placenta were discarded, and the villous tissue from the central part of the placental cotyledons was isolated. […] All the experiments were performed in triplicate in at least three different placentas.
Cells or HPE were exposed to parasites. […]
Subsequently, cells were exposed to parasites at a 1:1 ratio (cell: parasite) for 24 hours. […] The resulting DNA was quantified using a μDrop Plate DNA quantification system on the Varioskan Flash multimode reader (Thermo Scientific, USA). […]
Amplification was carried out using the CFX96 Touch Deep Well Real-Time PCR Detection System (Biorad, California, USA) with the following cycling program: initial denaturation at 95°C for 3 min, followed by 40 cycles of denaturation at 95°C for 5 s, annealing at 60°C for 30 s, and a dissociation stage ranging from 60°C to 95°C. The relative quantification analysis of the results was expressed as RQ values using the comparative […] (∆∆Ct) ([80]).

[6] = tested on: HPE exposed to T. gondii tachyzoites; assay: Histopathology of HPE infected with T. gondii; assay type: cell-based, human; settings: IC50 concentration
From the text: Cells or HPE were exposed to parasites. […] The following treatment conditions were used in both infection models. […] Untreated cells or HPE served as a negative control, and the compounds’ activity was compared with the reference drugs (NFX and PMN).

[7] = tested on: T. gondii tachyzoites, RH strain; assay: Resazurin viability assay on free T. gondii tachyzoites; assay type: cell-based, Toxoplasma gondii
From the text: Untreated parasites served as a negative control.

C/C(=N\NC(N)=S)c1c(O)c2cc([N+](=O)[O-])ccc2oc1=O [Compound 1, (E)−2-(1-(4-hydroxy-6-nitro-2-oxo-2H-chromen-3-yl)ethylidene)hydrazine-1-carbothioamide]
CC50 at 24 h [1]: > 400 µM | ROS generation (DCF fluorescence) [2]: increase in ROS levels, albeit lower than the positive control | Lipophilicity (RM) [3]: 0.00 | E(pIIa) ([4]; anodic peak IIa): −0.98 V | E(pIcb) ([4]; cathodic peak Icb, nitro reduction): ~−0.99 V | effect on parasite DNA load [5]: not statistically significant; also recorded: did not reduce the parasitic load | tissue damage in infected HPE (histopathology) ([6]; co-incubation): prevented tissue damage induced by tachyzoites | tissue damage in infected HPE (histopathology) ([6]; post-infection treatment): did not reduce the parasitic load or mitigate tissue damage | IC50 ([7]; Toxoplasma gondii, extracellular tachyzoites RH strain, 24 h, resazurin): 17.3 ± 0.5 µM | viability at 100 µM ([7]; Toxoplasma gondii, tachyzoites RH, 100 µM, 24 h): 24.3 ± 10.4% | SI = BeWo CC50/parasite IC50 ([7]; parasite T. gondii): 22.3 | SI = EA.hy926 CC50/parasite IC50 ([7]; parasite T. gondii): >23.1
